≈ marks a conversion by molar mass, not a printed value. Like-named read-outs stand apart in the source and are kept apart here.
What was measured:
[1] = target: T1, yeast α-glucosidase (Saccharomyces cerevisiae, UniProt P53341); assay: α-Glucosidase inhibitory activity; type: biochemical, Saccharomyces cervisiae
T1 construct: purchased Sigma-Aldrich
Protocol: All thin layer chromatography analyses were performed at room temperature using pre-coated plates (MERCK, silica gel 60 F254 0.2 thickness). Detection of spots was done by viewing under UV light (254 and 366 nm). Open column chromatography was carried out using silica gel (230-400 mesh) and Sephadex LH-20. Nuclear magnetic resonance (NMR) data were obtained using Bruker spectrometers (400 and 500 MHz). Chemical shifts are expressed in parts per million (ppm).
α-Glucosidase inhibitory activity was determined as previously described by Tao et al. with modifications as detailed by Rengasamy et al.. Briefly, yeast α-glucosidase (0.1 Unit/mL) was dissolved in 0.1 M potassium phosphate buffer (pH 6.8), this was used as the enzyme solution. The control experiment contained the same reaction mixture, but the sample solution was replaced with the same volume of phosphate buffer. […] The determinations were carried out in triplicate. The percentage inhibition (%) was calculated using the following equation: % Inhibition = (Acontrol − Asample)/Acontrol × 100(1) where Acontrol is the absorbance of the control and Asample is the absorbance of the sample. The IC50, which is the concentration of the sample required to inhibit 50% of the enzyme was determined for each sample.

[2] = system: Candida albicans (ATCC 10231); assay: Antifungal microdilution bioassay (MIC); type: cell-based
Protocol: The antifungal activity of the crude methanol extract, fractions and isolated compounds were evaluated against Candida albicans (ATCC 10231) using the micro-dilution assay, modified for an antifungal assay. An overnight fungal culture was prepared in 10 mL yeast malt (YM) broth. Four hundred microliters of the overnight Candida culture were added to 4 mL of sterile saline solution. The absorbance was read at 530 nm and adjusted with sterile saline solution to match that of a […] McFarland standard solution. From this prepared stock, a 1:1000 dilution with sterile YM broth was prepared to give an approximately 10^6 cfu/mL culture. One hundred microlitres of the resuspended (in 70% aqueous acetone) crude extract, fractions (50 mg/mL) or compounds (1 mg/mL) were two-fold serially diluted with sterile distilled water, in duplicate down a 96-well microtitre plate. A similar 2-fold serial dilution of amphotericin B (Sigma, 2.5 mg/mL) was used as a positive control. Water, 70% aqueous acetone and fungal free broth were included as negative/solvent controls. The screening was done in triplicate and repeated twice for each extract, the MIC and MFC values were recorded.

[3] = target: T2, AChE (isolated from electric eels) (Electrophorus electricus, UniProt O42275); assay: biochemical
T2 construct: AChE (isolated from electric eels) (type VI-S lyophilized powder); purchased Sigma-Aldrich type VI-S lyophilized powder; host or cells: isolated from electric eels
T2 sequence (O42275 24-633): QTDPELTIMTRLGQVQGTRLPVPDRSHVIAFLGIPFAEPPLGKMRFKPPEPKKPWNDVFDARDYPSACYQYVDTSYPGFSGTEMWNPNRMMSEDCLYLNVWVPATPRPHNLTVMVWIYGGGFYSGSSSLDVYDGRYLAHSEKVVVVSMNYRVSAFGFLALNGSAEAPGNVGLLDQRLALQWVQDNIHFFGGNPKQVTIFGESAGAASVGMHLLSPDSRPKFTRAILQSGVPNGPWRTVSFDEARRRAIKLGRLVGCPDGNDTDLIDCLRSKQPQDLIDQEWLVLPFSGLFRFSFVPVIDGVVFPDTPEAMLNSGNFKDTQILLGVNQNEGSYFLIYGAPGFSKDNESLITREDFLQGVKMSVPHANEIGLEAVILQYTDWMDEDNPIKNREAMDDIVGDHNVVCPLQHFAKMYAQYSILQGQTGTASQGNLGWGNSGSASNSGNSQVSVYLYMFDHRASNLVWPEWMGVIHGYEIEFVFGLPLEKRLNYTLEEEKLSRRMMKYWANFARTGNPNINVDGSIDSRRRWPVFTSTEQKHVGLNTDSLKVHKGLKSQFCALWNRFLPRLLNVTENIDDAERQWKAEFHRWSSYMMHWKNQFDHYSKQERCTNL
Protocol: Inhibition of AChE by the crude methanol extract, fractions and isolated compounds was done as described by Ellman et al. with some modifications. The acetylcholinesterase enzyme activity was measured by spectrophotometric observation of the increase in a yellow colour produced from thiocholine when it reacts with the dithiobisnitrobenzoate ion. AChE (isolated from electric eels) (type VI-S lyophilized powder) was obtained from Sigma-Aldrich. The assay was carried out in a 96-well microtitre plate. The crude methanol extract, fractions and isolated compounds were at initial concentrations of 10 mg/mL (crude extract and fractions) and 1 mg/mL (pure compounds). The increase in absorbance due to the spontaneous hydrolysis of the substrate was corrected by subtracting the ratio of reaction before adding the enzyme from the rate after adding the enzyme (0.2 U/mL). Percentage of inhibition was calculated by comparing the reaction rates for the sample to the negative control. […] The IC50 values of extracts and compounds were calculated using Graph Pad Prism (version 5.0) statistical software programme for Windows (GraphPad Software Inc.).

[4] = target: T3, human recombinant COX-2 enzyme (Homo sapiens, UniProt P35354); assay: Cyclooxygenase (COX-2) inhibitory bioassay; type: biochemical; settings: read-out: COX-2 inhibitory activity level
T3 construct: His6 (N); purchased Sigma-Aldrich; host or cells: Baculovirus overexpression system in Sf 21 cells
T3 sequence (P35354 18-604): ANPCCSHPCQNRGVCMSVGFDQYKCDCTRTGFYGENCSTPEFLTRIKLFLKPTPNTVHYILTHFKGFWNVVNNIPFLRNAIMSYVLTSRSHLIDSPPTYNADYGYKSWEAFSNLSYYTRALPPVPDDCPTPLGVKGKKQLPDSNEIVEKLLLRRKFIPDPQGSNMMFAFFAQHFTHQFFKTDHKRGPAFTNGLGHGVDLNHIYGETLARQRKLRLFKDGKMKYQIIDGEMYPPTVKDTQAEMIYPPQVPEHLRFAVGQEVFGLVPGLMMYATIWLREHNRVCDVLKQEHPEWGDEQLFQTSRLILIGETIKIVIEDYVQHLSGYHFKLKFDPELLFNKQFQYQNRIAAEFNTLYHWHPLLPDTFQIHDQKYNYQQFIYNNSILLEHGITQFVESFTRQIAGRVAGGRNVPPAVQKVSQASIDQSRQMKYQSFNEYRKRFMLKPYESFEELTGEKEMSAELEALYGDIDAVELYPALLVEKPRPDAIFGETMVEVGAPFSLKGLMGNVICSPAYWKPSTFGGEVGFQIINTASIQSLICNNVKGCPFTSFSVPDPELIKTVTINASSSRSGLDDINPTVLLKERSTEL

[5] = system: Staphylococcus aureus ATCC 12600; assay: Antibacterial microdilution bioassay (MIC); type: cell-based; settings: for Antimicrobial MIC S.a.: n = 3
Protocol: (§1) Minimum inhibitory concentration (MIC) values for antibacterial activity of the crude methanol extract, fractions and isolated compounds were determined using the microdilution bioassay in a 96-well (Greiner Bio-one GmbH, Frickenhausen, Germany) microtitre plates. One hundred microlitres of the resuspended (in 70% aqueous acetone) crude extract, fractions (50 mg/mL) or compounds (1 mg/mL) was two-fold serially diluted with sterile distilled water, in duplicate down the microtitre plate for each of the four bacteria used. A similar two-fold serial dilution of neomycin (Sigma) (0.1 mg/mL) was used as a positive control against each bacterium. Water and 70% aqueous acetone were included as a negative/solvent controls. The screening was done in triplicate and repeated twice for each extract.

[6] = system: Escherichia coli ATCC 11775; assay: Antibacterial microdilution bioassay (MIC); type: cell-based; settings: for Antimicrobial MIC E.c.: n = 3
Protocol: as §1

[7] = system: Bacillus subtilis ATCC 6051; assay: Antibacterial microdilution bioassay (MIC); type: cell-based; settings: for Antimicrobial MIC B.s.: n = 3
Protocol: as §1

[8] = system: Klebsiella pneumoniae ATCC 13883; assay: Antibacterial microdilution bioassay (MIC); type: cell-based; settings: for MIC: Klebsiella pneumoniae
Protocol: as §1

[9] = read-out: α-Glucosidase inhibitory activity Percentage inhibition
[10] = ATCC10231, read-out: Antimicrobial MIC C.a.
[11] = pure compounds at 300 µg/mL, mean ± standard error, read-out: AChE inhibitory activity Percentage inhibition
[12] = ATCC10231, n = 3, read-out: Antimicrobial MIC C.a.
[13] = ATCC12600, n = 3, read-out: Antimicrobial MIC S.a.
[14] = ATCC11775, n = 3, read-out: Antimicrobial MIC E.c.
[15] = ATCC6051, n = 3, read-out: Antimicrobial MIC B.s.
[16] = ATCC13883, Klebsiella pneumonia, n = 3, read-out: Antimicrobial MIC K.p.
[17] = pure compounds at 300 µg/mL, mean ± standard error

T1 sequence (P53341 whole entry): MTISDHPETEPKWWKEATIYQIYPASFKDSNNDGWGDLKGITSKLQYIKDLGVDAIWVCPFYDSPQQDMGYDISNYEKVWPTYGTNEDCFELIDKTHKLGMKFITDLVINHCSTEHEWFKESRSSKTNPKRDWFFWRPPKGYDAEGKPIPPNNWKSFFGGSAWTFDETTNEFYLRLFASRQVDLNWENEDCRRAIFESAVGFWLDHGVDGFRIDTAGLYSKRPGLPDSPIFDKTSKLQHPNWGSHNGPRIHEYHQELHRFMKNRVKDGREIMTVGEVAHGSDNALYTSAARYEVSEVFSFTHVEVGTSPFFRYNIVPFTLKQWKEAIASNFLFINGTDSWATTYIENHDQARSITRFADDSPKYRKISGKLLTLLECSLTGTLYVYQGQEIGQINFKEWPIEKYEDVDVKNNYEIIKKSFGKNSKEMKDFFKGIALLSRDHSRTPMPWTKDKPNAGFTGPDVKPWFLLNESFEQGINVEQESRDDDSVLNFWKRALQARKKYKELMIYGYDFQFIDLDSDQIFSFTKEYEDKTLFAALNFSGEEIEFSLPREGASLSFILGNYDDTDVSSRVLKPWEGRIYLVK

Which inhibition at 250 µg/mL [1, 9] does the source give for `C[C@H]1O[C@H](O[C@H]2[C@H](O)[C@@H](O)[C@@H](O[C@H]3[C@H](O)[C@@H](O)C(O)O[C@@H]3CO)O[C@@H]2CO)[C@H](O)[C@@H](O)[C@@H]1N[C@H]1C=C(CO)[C@@H](O)[C@H](O)[C@H]1O` (stereo partly shown) [Acarbose, acarbose, reference compound] here?
The inhibition at 250 µg/mL was 83.6 ± 2.6%.

`C[C@@H]1[C@H](O)[C@@H](C)/C=C/C=C/C=C/C=C/C=C/C=C/C=C/[C@H](O[C@@H]2O[C@H](C)[C@@H](O)[C@H](N)[C@@H]2O)C[C@@H]2O[C@](O)(C[C@@H](O)C[C@@H](O)[C@H](O)CC[C@@H](O)C[C@@H](O)CC(=O)O[C@H]1C)C[C@H](O)[C@H]2C(=O)O` [Amphotericin B, amphotericin B, reference compound] was tested. Which MIC [2, 10] did it give?
The MIC was 9.77 µg/mL (≈ 10.6 µM).

How did the IC50 [3] turn out when `CC1OC(Oc2c(-c3cc(O)c(O)c(O)c3)oc3cc(O)cc(O)c3c2=O)C(O)C(O)C1O` (stereo not shown) [Myricetrin-3-O-rhamnoside (1), Myricetrin-3-O-rhamnoside] was run?
The IC50 was 140 µM.

And the inhibition at 300 µg/mL ([3]; read-out: AChE inhibitory activity Percentage inhibition)?
The inhibition at 300 µg/mL was 54.3 ± 1.1%.

And the MIC [2, 10]?
The MIC was 250 µg/mL (≈ 538 µM).

What about the IC50 [1] of the same molecule?
The IC50 was 170 µM.

And the inhibition at 300 µg/mL [1, 9]?
Its inhibition at 300 µg/mL is 89.1 ± 5.3%.

And the inhibition at 25 µg/mL [4]?
The inhibition at 25 µg/mL was less than 20%.

And the MIC ([5]; ATCC12600, read-out: Antimicrobial MIC S.a.)?
The MIC was 250 µg/mL (≈ 538 µM).

And the MIC ([6]; ATCC11775, read-out: Antimicrobial MIC E.c.)?
The MIC was 250 µg/mL (≈ 538 µM).

What about the MIC ([7]; ATCC6051, read-out: Antimicrobial MIC B.s.) of the same molecule?
The MIC was 250 µg/mL (≈ 538 µM).

What about the MIC ([8]; ATCC13883, read-out: Antimicrobial MIC K.p.) of the same molecule?
The MIC was 250 µg/mL (≈ 538 µM).

Which inhibition at 300 µg/mL [3, 11] does the source give for `O=c1c(O)c(-c2ccc(O)c(O)c2)oc2cc(O)cc(O)c12` [Quercetin (3), 3,3', 4',5,7-pentahydroxyflavone] here?
The inhibition at 300 µg/mL was 56.6 ± 0.3%.

What about the MIC [2, 12] of the same molecule?
Its MIC is 20 µg/mL (≈ 66.2 µM).

What about the inhibition at 300 µg/mL [1, 9] of the same molecule?
Its inhibition at 300 µg/mL is 67.1 ± 4.2%.

What about the MIC [5, 13] of the same molecule?
Its MIC is greater than 250 µg/mL.

And the MIC [6, 14]?
The MIC was greater than 250 µg/mL.

And the MIC [7, 15]?
The MIC was 30 µg/mL (≈ 99.3 µM).

And the MIC [8, 16]?
The MIC was 250 µg/mL (≈ 827 µM).

What does the source list for `O=C(/C=C/c1ccc(O)cc1)NCCc1c[nH]c2ccc(O)cc12` [Trans-N-(p-coumaroyl) serotonin (4), (E)-N-(4-hydroxycinnamoyl)-5-hydroxytryptamine]?
IC50 ([3]; mean ± standard error, read-out: AChE inhibitory activity IC50 (converted)): 46.5 µM; inhibition at 300 µg/mL [3, 11]: 72.6 ± 4.9%; inhibition at 300 µg/mL ([3]; pure compounds at 300 µg/mL, read-out: AChE inhibitory activity level): 70 to 100%; MIC [2, 12]: 130 µg/mL (≈ 403 µM); IC50 [1]: 16.4 µM; inhibition at 300 µg/mL [1, 9]: 97.3 ± 3.2%; MIC [5, 13]: 250 µg/mL (≈ 776 µM); MIC [6, 14]: 250 µg/mL (≈ 776 µM); MIC [7, 15]: 250 µg/mL (≈ 776 µM); MIC [8, 16]: 250 µg/mL (≈ 776 µM)

Which results are given for “Quercetin-3-O-rhamnoside [Quercetin-3-O-rhamnoside (2)]”?
AChE inhibitory activity Percentage inhibition [3, 17]: 53.3 ± 1.0 b,c; Antimicrobial MIC C.a. ([2]; n = 3): 0.25 mg/mL; α-Glucosidase inhibitory activity Percentage inhibition [1, 17]: 47.0 ± 1.7 a; Antimicrobial MIC S.a. [5]: >0.25 mg/mL; Antimicrobial MIC E.c. [6]: >0.25 mg/mL; Antimicrobial MIC B.s. [7]: 0.13 mg/mL; Antimicrobial MIC K.p. ([8]; Klebsiella pneumonia, n = 3): >0.25 mg/mL

neomycin [reference compound] was tested. Which “Antimicrobial MIC S.a.” value [5] did it give?
The value was 0.0016 mg/mL.

And the “Antimicrobial MIC E.c.” value [6]?
Its value is 0.0008 mg/mL.

And the “Antimicrobial MIC B.s.” value [7]?
The value was 0.0016 mg/mL.

What about the “Antimicrobial MIC K.p.” value ([8]; Klebsiella pneumonia, n = 3) of the same molecule?
Its value is 0.0008 mg/mL.
